The record followed here is patent US6737383B1, “Herbicidal oxadiazolidines” (priority 1999, dated 2004).

Structures are written as SMILES.

One test deals with bedstraw. In words: Test B pre/postemergence bedstraw. In kind it is in vivo, Galium aparine. The gist of the method:
(§1)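 Test chemicals in a non-phytotoxic solvent mixture with surfactant were sprayed preemergence onto planted seeds and postemergence onto plants 2 to 18 cm tall (1- to 4-leaf stage). After twelve to sixteen days in a greenhouse, injury was visually rated against untreated controls from 0 (no effect) to 10 (complete control).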

The test system of another test is wild oat. The experiment in a line: Test B pre/postemergence wild oat. In kind it is in vivo, Avena fatua. In short, it runs like this: as §1
For another test, the system named is surinam grass. The experiment in a line: Test B pre/postemergence surinam grass. In kind it is in vivo, Brachiaria decumbens. The gist of the method:
as §1

The next test has as its system bamyardgrass. In words: Test B flood test barnyardgrass. The class given is in vivo, Echinochloa crus-galli. The following applies: for Plant response rating, Barnyardgrass (0 to 10 scale, 0 is no effect, 10 is complete control): Rate 62 g/ha; for Plant response rating, Barnyardgrass (0 to 10 scale, 0 is no effect, 10 is complete control) / Barnyardgrass plant response rating (0 to 10 scale, 0 is no effect, 10 is complete control): flood test species, visual evaluation after twelve to sixteen days; for Barnyardgrass plant response rating (0 to 10 scale, 0 is no effect, 10 is complete control): Rate 125 g/ha, under heading Pre-emergence. The gist of the method:
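Plants were grown to the 2-leaf stage before treatment with test chemical, then held in a greenhouse for twelve to sixteen days. Injury was visually rated against untreated controls on a 0–10 scale, where 0 is no effect and 10 is complete control.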

The mark [1] stands for this setting: Postemergence, Rate 62 g/ha, scale of 0 to 10, 0 is no effect, 10 is complete control.
Setting [2] is: Preemergence, Rate 62 g/ha, scale 0 to 10 (0 no effect, 10 complete control).
Setting [3] is: Preemergence, Rate 125 g/ha, scale 0 to 10, 0 is no effect, 10 is complete control.
[4] abbreviates: Preemergence, Rate 500 g/ha, scale of 0 to 10 where 0 is no effect and 10 is complete control.
The mark [5] stands for this setting: Postemergence, Rate 500 g/ha, scale of 0 to 10 where 0 is no effect and 10 is complete control.
Setting [6] is: Rate 250 g/ha, Postemergence, scale of 0 to 10 where 0 is no effect and 10 is complete control.
[7] abbreviates: Rate 250 g/ha, Pre-emergence (flood test species), scale 0 to 10, 0 is no effect, 10 is complete control.
Where [8] appears, read: Rate 500 g/ha, Pre-emergence section of Table B, 0 to 10 scale (0 no effect, 10 complete control).
The mark [9] stands for this setting: Postemergence, Rate 125 g/ha, scale of 0 to 10 where 0 is no effect and 10 is complete control.
Setting [10] is: Preemergence, Rate 125 g/ha, scale of 0 to 10 where 0 is no effect and 10 is complete control.
Setting [11] is: Postemergence, Rate 250 g/ha, scale of 0 to 10, 0 is no effect, 10 is complete control.
The mark [12] stands for this setting: Postemergence, Rate 62 g/ha, scale 0 to 10, 0 is no effect, 10 is complete control.
[13] abbreviates: Preemergence, Rate 250 g/ha, scale 0 to 10 (0 no effect, 10 complete control).
Where [14] appears, read: Rate 1000 g/ha, Preemergence, scale 0 to 10 (0 no effect, 10 complete control).

In the case of `CC(C)N(C(=O)n1oc(=O)n(C(C)C(=O)c2ccccc2)c1=O)c1ccccc1` (stereo not drawn) [Compound 570], the “Bedstraw plant response rating” value in the test with bedstraw (setting [1]), in the test on bedstraw (setting [2]), in the test on bedstraw (setting [3]) and in the test on bedstraw (setting [4]) was 0 in each case. For the same compound, the “Bedstraw plant response rating (0 to 10 scale)” value in the test on bedstraw (Preemergence, Rate 250 g/ha) amounted to 0. Also, the “Plant response rating, Wild oats” value in the test on wild oat (setting [5]) and with wild oat (setting [6]) was 0 each time. The “Wild oats plant response rating” value with wild oat (setting [2]), in the test on wild oat (setting [3]) and in the test on wild oat (setting [4]) was 0 throughout. Further, in the test on wild oat (Preemergence, Rate 250 g/ha), the “Wild oats plant response rating (0 to 10 scale)” value turned out to be 0. For the same compound, the “B. signalgrass plant response rating” value is on record as 0 with surinam grass (setting [1]); 0 in the test with surinam grass (Postemergence, Rate 125 g/ha, scale 0 to 10, 0 is no effect, 10 is complete control); 0 with surinam grass (setting [2]); 0 in the test with surinam grass (setting [3]); 0 in the test with surinam grass (setting [4]). For the same compound, the “Plant response rating, B. signalgrass” value with surinam grass (setting [5]) and in the test on surinam grass (setting [6]) was 0 each time. The “B. signalgrass plant response rating (0 to 10 scale, 0 is no effect, 10 is complete control)” value in the test with surinam grass (Preemergence, Rate 250 g/ha) is on record as 0. The “Plant response rating, Barnyardgrass (0 to 10 scale, 0 is no effect, 10 is complete control)” value with bamyardgrass (Pre-emergence) was 0. In the test with bamyardgrass, the “Barnyardgrass plant response rating (0 to 10 scale, 0 is no effect, 10 is complete control)” value was found to be 0. The “Barnyardgrass plant response rating” value in the test on bamyardgrass (setting [7]) and with bamyardgrass (setting [8]) was 0 each time.

`CC(C)N(C(=O)n1oc(=O)n(CC(=O)C(F)(F)F)c1=O)c1ccc(F)cc1F` [Compound 598]: the “Bedstraw plant response rating” value in the test on bedstraw (setting [1]), in the test on bedstraw (setting [2]), in the test on bedstraw (setting [10]) and in the test with bedstraw (setting [4]) was 0 each time. Besides, the “Plant response rating, Bedstraw” value in the test with bedstraw (setting [9]) is 0. Also, the “Bedstraw plant response rating (0 to 10 scale)” value with bedstraw (Preemergence, Rate 250 g/ha) turned out to be 0. The “Plant response rating, Wild oats” value with wild oat (setting [9]), with wild oat (setting [5]) and in the test on wild oat (setting [4]) was 0 throughout. Besides, the “Wild oats plant response rating” value in the test with wild oat (setting [11]), with wild oat (setting [2]) and in the test on wild oat (setting [10]) was 0 throughout. Besides, the “B. signalgrass plant response rating” value with surinam grass (setting [1]), in the test with surinam grass (setting [11]), in the test on surinam grass (setting [2]), with surinam grass (setting [10]) and in the test on surinam grass (setting [4]) was 0 each time. The “Plant response rating, B. signalgrass” value in the test on surinam grass (setting [9]) and with surinam grass (setting [5]) was 0 each time. Further, the “B. signalgrass plant response rating (0 to 10 scale, 0 is no effect, 10 is complete control)” value in the test on surinam grass (Preemergence, Rate 250 g/ha) came to 0. For the same compound, the “Plant response rating, Barnyardgrass (0 to 10 scale, 0 is no effect, 10 is complete control)” value with bamyardgrass (Pre-emergence) stood at 0. In the test on bamyardgrass, the “Barnyardgrass plant response rating (0 to 10 scale, 0 is no effect, 10 is complete control)” value came out at 0. Besides, the “Barnyardgrass plant response rating” value in the test with bamyardgrass (setting [7]) and with bamyardgrass (setting [8]) was 0 each time.

`CC(C)N(C(=O)n1oc(=O)n(CC2=NOCCC2)c1=O)c1ccc(F)cc1F` [Compound 602]: in the test with bedstraw (setting [9]), the “Plant response rating, Bedstraw” value is listed as 3. Further, the “Bedstraw plant response rating” value in the test with bedstraw (setting [11]) is 3; with bedstraw (setting [2]) it was 0; with bedstraw (setting [10]), 0; with bedstraw (setting [4]), 0. Moreover, the “Bedstraw plant response rating (0 to 10 scale)” value in the test with bedstraw (Preemergence, Rate 250 g/ha) is given as 0. The “Plant response rating, Wild oats” value in the test on wild oat (setting [12]) is given as 0; with wild oat (setting [9]), 0; in the test with wild oat (setting [5]) it was 3; with wild oat (setting [4]), 8. For the same compound, the “Wild oats plant response rating” value in the test with wild oat (setting [11]) is given as 0; in the test on wild oat (setting [2]), 0; with wild oat (setting [10]) it was 3. In addition, the “Plant response rating, B. signalgrass” value in the test with surinam grass (setting [12]) was determined as 0; in the test on surinam grass (setting [9]), 2; in the test on surinam grass (setting [5]), 7. Also, the “B. signalgrass plant response rating” value in the test with surinam grass (setting [11]) came out at 5; with surinam grass (setting [2]) it was 0; in the test on surinam grass (setting [10]), 4; in the test with surinam grass (setting [4]) it was 7. Moreover, the “B. signalgrass plant response rating (0 to 10 scale, 0 is no effect, 10 is complete control)” value in the test on surinam grass (Preemergence, Rate 250 g/ha) is 7. Moreover, in the test on bamyardgrass (Pre-emergence), the “Plant response rating, Barnyardgrass (0 to 10 scale, 0 is no effect, 10 is complete control)” value was 0. Moreover, in the test with bamyardgrass, the “Barnyardgrass plant response rating (0 to 10 scale, 0 is no effect, 10 is complete control)” value is on record as 0. The “Barnyardgrass plant response rating” value with bamyardgrass (setting [7]) and with bamyardgrass (setting [8]) was 0 in each case.

On to `CCC(C)n1c(=O)on(C(=O)N(c2ccccc2)C(C)C)c1=O` (stereo not drawn) [Compound 612], for which the “Plant response rating, Bedstraw” value is 3 with bedstraw (setting [12]) and 9 in the test with bedstraw (setting [5]). Moreover, the “Bedstraw plant response rating” value in the test on bedstraw (setting [11]) amounted to 6; with bedstraw (setting [4]), 10. Also, the “Plant response rating, Wild oats” value in the test with wild oat (setting [12]) turned out to be 0; in the test on wild oat (setting [9]), 6; in the test on wild oat (setting [5]), 9; with wild oat (setting [4]) it was 10. Also, the “Wild oats plant response rating” value in the test with wild oat (setting [11]) turned out to be 6; with wild oat (setting [2]) it was 5; with wild oat (setting [10]), 9. In addition, the results for the “Plant response rating, B. signalgrass” value in the test with surinam grass (setting [12]), with surinam grass (setting [9]) and in the test with surinam grass (setting [5]) were 1, 3 and 9, respectively. In addition, the “B. signalgrass plant response rating” value in the test on surinam grass (setting [11]) came out at 7; in the test on surinam grass (setting [2]), 4; in the test on surinam grass (setting [10]), 7; with surinam grass (setting [4]), 10. For the same compound, the “B. signalgrass plant response rating (0 to 10 scale, 0 is no effect, 10 is complete control)” value in the test on surinam grass (Preemergence, Rate 250 g/ha) worked out at 10. For the same compound, the “Plant response rating, Barnyardgrass (0 to 10 scale, 0 is no effect, 10 is complete control)” value in the test on bamyardgrass (Pre-emergence) is reported as 0. Also, the “Barnyardgrass plant response rating (0 to 10 scale, 0 is no effect, 10 is complete control)” value with bamyardgrass came to 0. In addition, the “Barnyardgrass plant response rating” value in the test on bamyardgrass (setting [7]) and in the test on bamyardgrass (setting [8]) was 0 in each case.

Consider `COC(=O)C(C)n1c(=O)on(C(=O)N(c2ccc(F)cc2)C(C)C)c1=O` (stereo not drawn) [Compound 616], for which the “Plant response rating, Bedstraw” value in the test on bedstraw (setting [9]) was 0; in the test on bedstraw (setting [13]), 0; in the test with bedstraw (setting [14]), 4. In addition, the “Bedstraw plant response rating” value in the test with bedstraw (setting [11]), with bedstraw (setting [10]) and in the test on bedstraw (setting [4]) was 0 in each case. The “Plant response rating, Wild oats” value with wild oat (setting [9]) was 0; with wild oat (setting [5]), 0; with wild oat (setting [13]), 0; with wild oat (setting [4]), 2; in the test on wild oat (setting [14]), 10. For the same compound, the “Wild oats plant response rating” value in the test with wild oat (setting [11]) and with wild oat (setting [10]) was 0 in each case. Further, the “Plant response rating, B. signalgrass” value in the test on surinam grass (setting [9]) worked out at 0; with surinam grass (setting [5]) it was 4; with surinam grass (setting [13]), 0; in the test on surinam grass (setting [14]) it was 6. Further, the “B. signalgrass plant response rating” value in the test with surinam grass (setting [11]) worked out at 1; in the test on surinam grass (Postemergence, Rate 1000 g/ha, scale 0 to 10 (0 no effect, 10 complete control)), 5; with surinam grass (setting [10]), 0; in the test with surinam grass (setting [4]), 1. Also, the “Barnyardgrass plant response rating” value was 0 in the test on bamyardgrass (Pre-emergence, Rate 1000 g/ha, scale 0 to 10 (0 no effect, 10 complete control)); 0 in the test with bamyardgrass (setting [7]); 0 in the test on bamyardgrass (setting [8]). Moreover, in the test with bamyardgrass, the “Barnyardgrass plant response rating (0 to 10 scale, 0 is no effect, 10 is complete control)” value is 0.
